US11273200B2, “Immunotherapy against several tumors including gastrointestinal and gastric cancer” (Immatics Biotechnologies GmbH, priority 2010, dated 2022)

Experiments:
[1] = tested on: CD8+ T cells; assay: In vitro immunogenicity of HLA-A*2402 restricted TUMAPs: priming of CD8+ T cells with pMHC/anti-CD28 coated beads (aAPC), multimer staining; type: cell-based, human; settings: HLA-A*2402 peptides, healthy donors, three stimulation cycles; for Wells positive/evaluable [%]: at least 48 wells evaluable; for Donors positive/evaluable [%]: at least four donors evaluable
Excerpt: (§1) In order to perform in vitro stimulations by artificial antigen presenting cells (aAPC) loaded with peptide-MHC complex (pMHC) and anti-CD28 antibody, we first isolated CD8 T cells from fresh HLA-A*24 leukapheresis products or from HLA-A*2 buffy coats of healthy donors obtained from the Blood Bank Tuebingen.
(§2) CD8 T cells were either directly enriched or PBMCs (peripheral blood mononuclear cells) were isolated first by using standard gradient separation medium (PAA, Colbe, Germany). Isolated CD8 lymphocytes or PBMCs were incubated until use in T-cell medium (TCM) consisting of RPMI-Glutamax (Invitrogen, Karlsruhe, Germany) supplemented with 10% heat inactivated human AB serum (PAN-Biotech, Aidenbach, Germany), 100 U/ml Penicillin/100 μg/ml Streptomycin (Cambrex, Cologne, Germany), 1 mM sodium pyruvate (CC Pro, Oberdorla, Germany), 20 μg/ml Gentamycin (Cambrex). […] Isolation of CD8+ lymphocytes was performed by positive selection using CD8 MicroBeads (Miltenyi Biotec, Bergisch-Gladbach, Germany).
(§3) 800.000 beads/200 μl were coated in 96-well plates in the presence of 600 ng biotin-anti-CD28 plus 200 ng relevant biotin-pMHC (high density beads). […] Half of the medium was then exchanged by fresh TCM supplemented with 80 U/ml IL-2 and incubation was continued for 3-4 days at 37° C. This stimulation cycle was performed for a total of three times.
(§4) In vitro priming of specific multimer+ CD8+ lymphocytes was detected by appropriate gating and by comparing to negative control stimulations.

[2] = tested on: CD8+ T cells; assay: In vitro immunogenicity of HLA-A*0201 restricted TUMAPs: priming of CD8+ T cells with pMHC/anti-CD28 coated beads (aAPC), multimer staining; type: cell-based, human; settings: HLA-A*0201 peptides, healthy donors, three stimulation cycles; for Wells positive/evaluable [%]: at least 48 wells evaluable; for Donors positive/evaluable [%]: at least four donors evaluable
Excerpt: as §1, §2, §3, §4

[3] = described in other applications by immatics; vaccines IMA901, IMA910; cited from earlier work

Substance | Wells positive/evaluable [%] [1] | Donors positive/evaluable [%] [1] | Wells positive/evaluable [%] [2] | Donors positive/evaluable [%] [2] | in vivo reactions [3]
AYAIIKEEL (listed as Homo sapiens) [ATAD2-001] | 3% | 33% |  |  | 
AYLVYTDRL (listed as Homo sapiens) [PPAP2C-001] | 29% | 83% |  |  | 
AYPTVKFYF (listed as Homo sapiens) [DNAJC10-002] | 3% | 33% |  |  | 
DYAYLREHF (listed as Homo sapiens) [ZNF598-001] | 17% | 83% |  |  | 
DYTIGFGKF (listed as Homo sapiens) [ITGB4-001] | 20% | 67% |  |  | 
FYISPVNKL (listed as Homo sapiens) [AVL9-001] | 31% | 100% |  |  | 
FYQPKIQQF (listed as Homo sapiens) [FANCI-001] | 1% | 17% |  |  | 
HYKPTPLYF (listed as Homo sapiens) [SMC4-001] | 10% | 73% |  |  | 
IFSKIVSLF (listed as Homo sapiens) [EIF2S3-001] | 1% | 17% |  |  | 
IYAPKLQEF (listed as Homo sapiens) [CCNE2-001] | 0% | 0% |  |  | 
IYLEVIHNL (listed as Homo sapiens) [DNAJC10-001] | 15% | 50% |  |  | 
IYNGKLFDLL (listed as Homo sapiens) [KIF2C-001] | 2% | 17% |  |  | 
IYPDASLLI (listed as Homo sapiens) [CEA-010] | 3% | 40% |  |  | 
KIFDEILVNA (listed as Homo sapiens) [TOP-001] |  |  | 10% | 40% | 
KIQEILTQV (listed as Homo sapiens) [IGF2BP3-001] |  |  | 21% | 50% | 
KYLTVKDYL (listed as Homo sapiens) [ATAD2-002] | 1% | 17% |  |  | 
KYNDTFWKEF (listed as Homo sapiens) [HSP90B1-001] | 7% | 50% |  |  | 
LYLENIDEF (listed as Homo sapiens) [POLD3-001] | 7% | 67% |  |  | 
LYPEVFEKF (listed as Homo sapiens) [ATAD2-003] | 0% | 0% |  |  | 

Substance | Wells positive/evaluable [%] [1] | Donors positive/evaluable [%] [1] | Wells positive/evaluable [%] [2] | Donors positive/evaluable [%] [2] | in vivo reactions [3]
LYQILQGIVF (listed as Homo sapiens) [CDC2-001] | 28% | 83% |  |  | 
MYMTVSIIDRF (listed as Homo sapiens) [CCNB1-003] | 3% | 33% |  |  | 
NYEETFPHI (listed as Homo sapiens) [MUC6-001] | 22% | 83% |  |  | 
NYLLYVSNF (listed as Homo sapiens) [MST1R-001] | 13% | 50% |  |  | 
NYLPFIMEL (listed as Homo sapiens) [UCHL5-001] | 12% | 75% |  |  | 
QYASRFVQL (listed as Homo sapiens) [PLK4-001] | 5% | 60% |  |  | 
QYIDKLNEL (listed as Homo sapiens) [CCDC88A-001] | 0% | 0% |  |  | 
RFLSGIINF (listed as Homo sapiens) [NUF2-002] | 6% | 50% |  |  | 
RYLEGTSCI (listed as Homo sapiens) [EPPK1-001] | 1% | 17% |  |  | 
RYLPKGFLNQF (listed as Homo sapiens) [PTK2-001] | 4% | 17% |  |  | 
RYLPQCSYF (listed as Homo sapiens) [CCND2-001] | 10% | 17% |  |  | 
RYLWATVTI (listed as Homo sapiens) [ASPM-001] | 3% | 17% |  |  | 
SYATLLHVL (listed as Homo sapiens) [GPR39-001] | 6% | 50% |  |  | 
SYIDVLPEF (listed as Homo sapiens) [MET-006] | 21% | 67% |  |  | 
SYIIDPLNL (listed as Homo sapiens) [PROM1-001] | 26% | 83% |  |  | 
SYLELVKSL (listed as Homo sapiens) [SDHC-001] | 3% | 33% |  |  | 
SYLQAANAL (listed as Homo sapiens) [COL6A3-001] | 0% | 0% |  |  | 
SYNPLWLRI (listed as Homo sapiens) [ASPM-002] | 32% | 67% |  |  | 
SYNVTSVLF (listed as Homo sapiens) [LCN2-001] | 1% | 17% |  |  | 

Substance | Wells positive/evaluable [%] [1] | Donors positive/evaluable [%] [1] | Wells positive/evaluable [%] [2] | Donors positive/evaluable [%] [2] | in vivo reactions [3]
SYQKVIELF (listed as Homo sapiens) [PBK-001] | 0% | 0% |  |  | 
TYGNLLDYL (listed as Homo sapiens) [ABL1-001] | 18% | 83% |  |  | 
VFDTAIAHLF (listed as Homo sapiens) [SIAH2-001] | 8% | 50% |  |  | 
VFIFKGNQF (listed as Homo sapiens) [MMP3-001] | 1% | 11% |  |  | 
VWSDVTPLTF (listed as Homo sapiens) [MMP11-001] | 11% | 33% |  |  | 
VYFSKSEQL (listed as Homo sapiens) [EPHA2-005] | 0% | 0% |  |  | 
VYGIRLEHF (listed as Homo sapiens) [NUF2-001] | 50% | 100% |  |  | 
VYIEKNDKL (listed as Homo sapiens) [ERBB3-001] |  | 83% |  |  | 
VYISSLALL (listed as Homo sapiens) [PSMD14-001] | 1% | 17% |  |  | 
VYKVVGNLL (listed as Homo sapiens) [IQGAP3-001] | 24% | 100% |  |  | 
VYLLNSTTL (listed as Homo sapiens) [CLCN3-001] | 6% | 33% |  |  | 
VYNPTPNSL (listed as Homo sapiens) [COL12A1-001] | 0% | 0% |  |  | 
VYPNWAIGL (listed as Homo sapiens) [SLC6A6-001] | 1% | 17% |  |  | 
VYTTMAEHF (listed as Homo sapiens) [TSPAN1-002] | 1% | 17% |  |  | 
VYTTSYQQI (listed as Homo sapiens) [NFYB-001] | 7% | 50% |  |  | 
YVDPVIT SI (YVDPVITSI; listed as Homo sapiens) [MET-001] |  |  | 42% | 67% | extremely good in vivo reactions
YYKNIGLGF (listed as Homo sapiens) [RPS11-001] | 3% | 17% |  |  | 
YYNAAGFNKL (listed as Homo sapiens) [UQCRB-001] | 24% | 83% |  |  | 
YYYVGFAYL (listed as Homo sapiens) [EIF'3L-001] | 29% | 100% |  |  | 
